Measurements taken from patent US11124785B2, “Rothia subtilisins, S8A family proteases, as therapeutic enzymes for application in gluten intolerance disorders” (TRUSTEES OF BOSTON UNIVERSITY, priority 2016, dated 2021).

How the values were obtained:
Format in all cases: biochemical
[1] = tested on: gliadin-derived FRET substrate QPQLPY; assay: FRET substrate hydrolysis, QPQLPY; conditions: substrate 100 μM, Rmep 1 μg/ml, pH 8.0, 37° C.
Description: FIG. 4D and FIG. 4E are representative graphs of the hydrolysis of gliadin-derived FRET substrates. FRET substrates containing QPQLPY (SEQ ID NO: 22), PQPQPQ (SEQ ID NO: 23) and QGSFQP (SEQ ID NO: 24), each at 100 μM, were incubated with Rmep […] and subtilisin A (FIG. 4E), at 1 μg/ml and 0.5 μg/ml, respectively. Controls were boiled Rmep and subtilisin A incubated with PQPQLPY (+) (SEQ ID NO: 25), PQPQPQ (⋄) (SEQ ID NO: 23) and QGSFQP (*) (SEQ ID NO: 24) (no activity, baseline).
FRET substrate hydrolysis—Three fluorescence resonance energy transfer (FRET) substrates comprising the hexapeptides QPQLPY (SEQ ID NO: 22), PQPQPQ (SEQ ID NO: 23) and QGSFQP (SEQ ID NO: 24) were synthesized with at the N-terminus the HILYTE FLUOR™ 488 label, and at the C-terminus with K(QXL520) (Anaspec, Fremont, Calif.). Rmep (1 μg/ml) and subtilisin A (0.5 μg/ml) were incubated with the substrates (100 μM) in 50 mM TrisHCl pH 8.0. Samples were incubated at 37° C. and fluorescence increase, indicating hydrolysis, was measured every 5 min for 30 min, and every 10 min for the next 30 min, at λex 485 nm and λem 520 nm, using a Genios microtiter plate reader in the kinetic mode.

Suc-AAPF-pNA = assay: pH activity profile of Rmep with Suc-AAPF-pNA; conditions: Suc-AAPF-pNA 200 μM; citric acid/phosphate buffer mixtures pH 2-12
Description: Activity of Rmep in 0.1M Citric acid/0.2M phosphate buffer mixtures, pH 2-12, was measured with Suc-AAPF-pNA (SEQ ID NO: 4) (200 μM) as the substrate.
Hydrolysis of paranitroanilide-derivatized substrates—Paranitroanilide (pNA)-derivatized tripeptide substrates were chemically synthesized at >90% purity (21st Century Biochemicals, Marlborough, Mass.). The substrates obtained were Z-YPQ-pNA, Z-QQP-pNA, Z-LPY-pNA, Z-PFP-pNA, Z-PPF-pNA, where Z=benzyloxycarbonyl, Y=tyrosine, P=proline, Q=glutamine, L=leucine, and F=phenylalanine Suc-AAPF-pNA (SEQ ID NO: 4) was obtained from Sigma, where Suc=N-succinyl and A=alanine. The peptides were dissolved in 75-100% DMSO at 10 mM, and were used at a final concentration of 200 μM in 50 mM TrisHCl pH 8.0. Purified Rothia enzyme or subtilisin A from Bacillus licheniformis (Sigma) were tested at final concentrations of 1 μg/ml. Some experiments were conducted in the presence of inhibitors 4-(2-Aminoethyl) benzenesulfonyl fluoride (AEBSF), Aprotinin, E-64, EDTA, phenylmethanesulfonyl fluoride (PMSF) and Eglin C, which were tested at final concentrations of 10 mM, 0.08 mM, 0.1 mM, 1.5 mM, 1 mM, and 0.06-1.2 μM, respectively. […] Substrate hydrolysis was monitored for 10 h at 405 nm using a Genios microtiter plate reader (Tecan, Männedorf, Switzerland) in the kinetic mode at 37° C.

gliadins = assay: Gliadin degradation control of Example 3 (SDS-PAGE); conditions: gliadins 500 μg/ml, enzyme 25 μg/ml, pH 8.0
Description: (§1) FIGS. 15A-15F show effective ATI degradation by subtilisins from B. subtilis (nattokinase). […] ATI (500 μg/ml) incubated with Rmep from R. mucilaginosa (FIG. 15A) or nattokinase from B. subtilis (FIG. 15C) at 50, 25, or 10 μg/ml; FIGS. 15B and 15D, Gliadins (500 μg/ml) incubated with Rmep (FIG. 15B) or nattokinase (FIG. 15D) at 25 μg/ml. FIGS. 15E and 15F, ATIs incubated with control heat inactivated enzymes, Rmep (FIG. 15E) or nattokinase (FIG. 15F).
(§2) ATIs were isolated from wheat cultivars as described^3. They were incubated at a final concentration of 500 μg/ml with 10, 25 or 50 μg/ml Rmep (from R. mucilaginosa), or nattokinase (from B. subtilis). The controls incubations were carried out with heat-inactivated Rmep and nattokinase. Experiments were conducted in 50 mM Tris-HCl, pH 8.0. After 0, 15 min, 30 min, 1 h, and 4 h incubation, 20 μl aliquots were removed, mixed with SDS-sample buffer, heated at 85° C. for 5 min and analyzed by 4-12% SDS PAGE. Proteins were visualized with Coomassie Blue staining.

wheat ATI proteins = assay: Degradation of amylase-trypsin inhibitors (SDS-PAGE); conditions: ATIs 500 μg/ml, enzyme 10, 25 or 50 μg/ml, pH 8.0, up to 4 h
Description: as §1, §2

Rmep: DEAE pooled fraction F2 of R. mucilaginosa ATCC 25296 extract with highest gluten-degrading enzyme activity; contains subtilisins C6R5V9_9MICC and C6R5W1_9MICC
hydrolysis of FRET substrate QPQLPY [1]: rapidly hydrolyzed | pH range over which the enzyme was active (Suc-AAPF-pNA): 6.0-10.0 | degradation of gliadins (gliadins): degraded | degradation of wheat ATI proteins (wheat ATI proteins): resistant to degradation
